The record followed here is ChEMBL document CHEMBL1133414, “Bifunctional alkylating agents derived from duocarmycin SA: potent antitumor activity with altered sequence selectivity” (Bioorg Med Chem Lett, 2000).

This assay deals with L1210. The experiment in a line: In vitro cytotoxicity against L1210 cell line. The following applies: Mus musculus. Type of assay: functional, cell-based.
Turning to `COC(=O)c1cc2c([nH]1)C(=O)C=C1N(C(=O)c3cc4cc(OC)c(OC)c(OC)c4[nH]3)C[C@@H]3C[C@@]123`, the 50% inhibitory concentration (IC50) is 0.1 nM.

As to `COC(=O)c1cc2c([nH]1)C(=O)C=C1N(C(=O)c3cc4c([nH]3)C(=O)C=C3N(C(=O)OC(C)(C)C)C[C@H]5C[C@]345)C[C@@H]3C[C@@]123`, half-maximal inhibition (IC50) was put at 0.04 nM.

Molecule `COC(=O)c1cc2c([nH]1)C(=O)C=C1N(C(=O)c3cc4c([nH]3)C(=O)C=C3N(C(=O)OC(C)(C)C)C[C@@H]5C[C@@]345)C[C@@H]3C[C@@]123` yielded an IC50 of 0.05 nM.

For `COC(=O)c1cc2c([nH]1)C(=O)C=C1N(C(=O)c3cc4c([nH]3)C(=O)C=C3N(C(=O)OC(C)(C)C)C[C@H]5C[C@]345)C[C@H]3C[C@]123`, 0.003 nM corresponded to half-maximal inhibition (IC50).

Consider `COC(=O)c1cc2c([nH]1)C(=O)C=C1N(C(=O)c3cc4c([nH]3)C(=O)C=C3N(C(=O)OC(C)(C)C)C[C@@H]5C[C@@]345)C[C@H]3C[C@]123` (mixture of isomers), for which the IC50 is 0.005 nM.

Turning to `COC(=O)c1cc2c([nH]1)C(=O)C=C1N(C(=O)c3cc4cc(OC)c(OC)c(OC)c4[nH]3)C[C@H]3C[C@]123` [DUOCARMYCIN], inhibition was half-maximal at 0.01 nM (IC50).
